In series [1] the test system is HCT-116 tumor cells. Nature of the series: HCT-116 colorectal carcinoma xenograft model. It counts as in vivo, mice. As for the experimental part: FIG. 1 is a graph depicting the results of an HCT-116 colorectal carcinoma xenograft model. HCT-116 cells were inoculated into female athymic Balb c. nu^+/nu^+ mice. Once tumors reached an average volume of 200 mm^3, the animals were dosed with vehicle, 25 mg/kg 5-fluorouracil intraperitoneally and 75 mg/kg I-29 subcutaneously.
FIG. 2 is a graph depicting the results of an HCT-116 colorectal carcinoma xenograft model. HCT-116 cells were inoculated into female athymic Balb c. nu^+/nu^+ mice. Once tumors reached an average volume of 100 mm^3 the animals were dosed with vehicle, 50 mg/kg 5-fluorouracil intraperitoneally and 50 and 100 mg/kg I-34 orally. […] Mice were euthanized on Day 26 due to 20% weight loss. At Day 37, I-34 administered QDX5/week at 50 mg/kg inhibited tumor growth by 85%.
Female balb c nude mice (nu/nu) aged 6 to 8 weeks were obtained from Charles River Laboratories and were randomly and prospectively divided into six groups of ten mice. Mice were inoculated s.c. in flanks with 1×10^6 HCT-116 tumor cells. When cells reached 100-200 mm^3, animals were randomized into treatment groups of 5-10 mice each, excluding mice with the largest and smallest tumors. Mice were treated with vehicle, standard of care drugs (5-FU) or compounds of the invention at the indicated doses and regimen. Animals' weights and condition were recorded daily, and tumors were measured daily. On Day 37 (2 hours after the final dose), all mice were sacrificed, plasma and tumor tissue were collected for PK/PD analysis. Tumors were divided in 4 sections (3, flash-frozen in separate vials and 1 fixed in formalin for paraffin block preparation).
HCT-116 Colorectal tumor cells (ATCC# CCL-247) were grown in the DMEM tissue culture media with 10% fetal bovine serum and 1% penicillin/streptomycin. Cells were routinely trypsinized and passaged 1:4. On the day of implantation, cells were washed in PBS, trypsinized and resuspended in complete media. Cells were washed 3× in serum free medium. Cells were resuspended to a density of 1×10^7 cells/ml prior to being implanted s.c. into mice in a volume of 0.1 mL using a 23G needle.
Tumors were monitored daily. Tumors appearing exceeding 1500 mm^3 were measured, and animals with tumors greater than 1500 mm^3 and/or tumors that became necrotic and/or hindered movement were euthanized. Tumors were measured twice weekly by measuring each tumor in 2 dimensions, along the largest dimension (length, L) and perpendicular to this dimension (width, W). Tumor weights were calculated using the standard formula: (L×W^2)/2. The mean tumor weight and standard error of the mean were calculated for each group at each time point.
Statistical differences between treatment groups were determined using appropriate statistical techniques. A one-way ANOVA or ANOVA on ranks was used to evaluate the area-under the curve for weight gain and tumor volume.

Series [2] deals with MM1.S cells. The experiment in a line: MM1.S multiple myeloma xenograft model. It counts as in vivo, mice. As for the experimental part:
FIG. 3 is a graph depicting the results of a MM1.S multiple myeloma model. MM1.S cells were inoculated into female athymic Balb c. nu^+/nu^+mice. Once tumors reached an average volume of 780 mm^3 the animals were dosed with vehicle and 75 mg/kg I-1 subcutaneously. Following 3 doses I-1 caused 50% reduction in tumor growth in a statistically significant manner.
FIG. 4 is a graph depicting the results of a MM1.S multiple myeloma model. MM1.S cells were inoculated into female athymic nu^+/nu^+ mice. Once tumors reached an average volume of 1400 mm^3 the animals were dosed with vehicle or 50 mg/kg I-29 subcutaneously every day. On the fourth day of dosing, vehicle group animals (n=10) reached an average volume of 2300 mm^3 and had to be euthanized due to tumor burden and poor health.
105 female athymic nude mice (8-9 weeks old, Harlan, USA) were grouped into […]. Animals were randomized such that the group average tumor volume was between 100-200 mm^3. Group average body weights were matched as closely as possible once average tumor volumes were randomized. The live-phase portion of this study will be 28 days in duration from the start of until the average group tumor volume reaches 2,000 mm^3, whichever comes first. Mice are to be euthanized with samples collected as and when they individually reach a tumor volume of approximately 2,000 mm^3.
MM1s Cell Culture. […]
Tumor volumes were monitored three times per week throughout the study (typically Monday, Wednesday and Friday) and calculated using the formula: Tumor volume=½(a^2 b); where a=width (smallest dimension) and b=length. […]
Animals were monitored as a group and their tumor volumes were measured three times per week at the same time of day. […]

Series [3] concerns the target T1, Crm1 (Homo sapiens, UniProt O14980). The experiment in a line: Inhibition of nuclear export (RevGFP assay) / MTT cytotoxicity, Table 1.
Procedure: (§1) The evaluation of the affinity of compounds for the Crm1 protein was determined in the RevGFP assay.
(§2) In this assay, U2OS-RevGFP cells are seeded onto clear-bottom, black, 384-well plates the day before the experiment. Compounds are serially diluted 1:2 starting from 40 μM in a separate 384-well plate in DMEM, and then transferred onto cells. Cells are incubated with compound for ˜1 hr before fixation with 3.7% formaldehyde and nuclei staining with Hoechst 33258. The amount of GFP in cell nuclei will be measured and compound IC50s determined (Kau et al, 2003).
(§3) The MTT cell proliferation assay was used to study the cytotoxic properties of the compounds. The assay was performed according to the method described by Roche Molecular Biochemicals with minor modifications. The assay is based on the cleavage of the tetrazolium salt, MTT, in the presence of an electron-coupling reagent. The water-insoluble formazan salt produced must be solubilized in an additional step. Cells, grown in a 96-well tissue culture plate, are incubated with the MTT solution for approximately 4 hours. After this incubation period, a water-insoluble formazan dye is formed. After solubilization, the formazan dye is quantitated using a scanning multi-well spectrophotometer (ELISA reader). […] The cells were seeded at 1.5×10^4 cells in each well of 96-well plate in 200 μL of fresh culture medium and were allowed to attach for overnight. The stock solutions of the compounds were diluted in cell culture medium to obtain eight concentrations of each drug, ranging from 1 nM to 20 μM. After 72 h of treatment the medium was aspirated and the cells were washed once with sterile 1×PBS. Each plate contained the samples, negative control and blank. The DMSO at less than 1% v/v was used as a negative control. […] The following formula was used to calculate the percent of inhibition: Inhibition (%)=(1−(ODo/OD))×100.
For series [4], the target named is T1, Crm1.
Procedure: as §1, §2, §3
Where [5] appears, read: 50 mg/kg subcutaneously every day, following 8 doses, FIG. 4.

Like-named read-outs stand apart in the source and are kept apart here. Bounds are passed on as bounds.

T1 sequence (O14980 whole entry): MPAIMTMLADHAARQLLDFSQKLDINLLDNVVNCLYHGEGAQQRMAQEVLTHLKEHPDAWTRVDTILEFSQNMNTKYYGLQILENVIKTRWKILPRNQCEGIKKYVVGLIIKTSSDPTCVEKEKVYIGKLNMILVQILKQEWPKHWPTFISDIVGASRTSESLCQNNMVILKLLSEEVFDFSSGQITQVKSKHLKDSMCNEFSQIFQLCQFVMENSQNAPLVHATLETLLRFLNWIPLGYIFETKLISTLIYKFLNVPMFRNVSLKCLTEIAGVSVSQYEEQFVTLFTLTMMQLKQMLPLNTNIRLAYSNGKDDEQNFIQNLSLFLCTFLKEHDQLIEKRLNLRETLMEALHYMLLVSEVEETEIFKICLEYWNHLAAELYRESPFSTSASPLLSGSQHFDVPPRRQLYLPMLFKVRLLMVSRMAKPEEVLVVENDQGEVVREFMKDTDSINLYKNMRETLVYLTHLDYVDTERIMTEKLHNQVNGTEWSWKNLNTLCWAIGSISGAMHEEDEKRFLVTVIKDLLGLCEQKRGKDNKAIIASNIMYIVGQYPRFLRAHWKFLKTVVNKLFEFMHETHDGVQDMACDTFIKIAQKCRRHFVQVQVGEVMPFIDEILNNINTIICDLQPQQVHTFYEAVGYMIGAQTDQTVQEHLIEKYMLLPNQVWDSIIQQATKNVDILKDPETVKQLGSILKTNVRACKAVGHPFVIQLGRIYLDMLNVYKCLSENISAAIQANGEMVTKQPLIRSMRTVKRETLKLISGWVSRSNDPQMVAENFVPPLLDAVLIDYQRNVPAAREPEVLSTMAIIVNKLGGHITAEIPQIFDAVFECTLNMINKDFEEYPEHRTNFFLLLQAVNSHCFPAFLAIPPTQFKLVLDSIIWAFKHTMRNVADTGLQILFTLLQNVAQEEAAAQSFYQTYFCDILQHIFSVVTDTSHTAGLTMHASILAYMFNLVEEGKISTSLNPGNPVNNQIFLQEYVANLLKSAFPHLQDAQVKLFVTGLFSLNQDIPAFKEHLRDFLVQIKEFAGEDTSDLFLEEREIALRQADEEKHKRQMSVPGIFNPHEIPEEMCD

Regarding `O=c1[nH]cc(F)c(=O)[nH]1` [Compound 5-FU, 5-fluorouracil, reference compound], the “efficacy on tumor growth” value in series [1] (25 mg/kg intraperitoneally, 3 weeks of dosing, FIG. 1) is “did not display efficacy”. Besides, the “inhibition of tumor growth compared to vehicle group” value in series [1] (50 mg/kg intraperitoneally, Day 37, FIG. 2) is reported as “no inhibition of tumor growth was observed”. Also, the condition of animals result in series [1] (50 mg/kg intraperitoneally, by Day 37, FIG. 2) is recorded as “euthanized due to poor condition”. In addition, the “inhibition of tumor growth” value in series [1] (50 mg/kg intraperitoneally, first 3 weeks, FIG. 2) is recorded as “inhibited tumor growth during the first 3 weeks in a statistically significant manner”.

One may read the IC50 as the concentration that inhibits the measured activity by half. Higher therefore signals lower potency. `COc1cc(-c2ncn(/C=C\c3nnco3)n2)cc(C(F)(F)F)c1` [Compound I-1, (Z)-2-(2-(3-(3-methoxy-5-(trifluoromethyl)phenyl)-1H-1,2,4-triazol-1-yl)vinyl)-1,3,4-oxadiazole]: in series [2] (75 mg/kg subcutaneously, following 3 doses, FIG. 3), the “reduction in tumor growth” value came to 50%. The same compound showed an IC50 in series [3] of under 1000 nM.

In series [3], `COc1cc(-c2ncn(/C=C\c3nnc(C)o3)n2)cc(C(F)(F)F)c1` [Compound I-2, (Z)-2-(2-(3-(3-methoxy-5-(trifluoromethyl)phenyl)-1H-1,2,4-triazol-1-yl)vinyl)-5-methyl-1,3,4-oxadiazole] showed an IC50 of under 1000 nM.

`COc1cc(-c2ncn(/C=C\c3nnco3)n2)cc(Cl)n1` [Compound I-10, (Z)-2-(2-(3-(2-chloro-6-methoxypyridin-4-yl)-1H-1,2,4-triazol-1-yl)vinyl)-1,3,4-oxadiazole] displayed an IC50 in series [3] of under 1000 nM.

In the case of `COc1cc(-c2ncn(/C=C\c3ccccn3)n2)cc(C(F)(F)F)c1` [Compound I-21, (Z)-2-(2-(3-(3-methoxy-5-(trifluoromethyl)phenyl)-1H-1,2,4-triazol-1-yl)vinyl)pyridine], the IC50 in series [3] is over 10000 nM.

Turning to `Clc1cccc(-c2ncn(/C=C\c3nnco3)n2)c1` [Compound I-26, (Z)-2-(2-(3-(3-chlorophenyl)-1H-1,2,4-triazol-1-yl)vinyl)-1,3,4-oxadiazole], the IC50 in series [3] is under 1000 nM.

In series [3], `Clc1cccc(-c2ncn(/C=C/c3nnco3)n2)c1` [Compound I-27, (E)-2-(2-(3-(3-chlorophenyl)-1H-1,2,4-triazol-1-yl)vinyl)-1,3,4-oxadiazole] had an IC50 of 1000 to 10000 nM.

As to `CC(C)Oc1cc(Cl)cc(-c2ncn(/C=C\c3nnco3)n2)c1` [Compound I-28, (Z)-2-(2-(3-(3-chloro-5-isopropoxyphenyl)-1H-1,2,4-triazol-1-yl)vinyl)-1,3,4-oxadiazole], the IC50 in series [3] is under 1000 nM.

Turning to `CC(C)Oc1cc(-c2ncn(/C=C\c3nnco3)n2)cc(C(F)(F)F)c1` [Compound I-29, (Z)-2-(2-(3-(3-isopropoxy-5-(trifluoromethyl)phenyl)-1H-1,2,4-triazol-1-yl)vinyl)-1,3,4-oxadiazole], in series [2] (setting [5]), the “animals still alive (survival)” value is listed as 10 out of 12 and the “reduction in tumor growth” value was found to be 50%. For the same compound, the “reduction in tumor growth” value in series [1] (75 mg/kg subcutaneously, 5 times/week, following 3 weeks of dosing, FIG. 1) turned out to be 50%. In series [3], this compound showed an IC50 of under 1000 nM.

Compound `CC(C)Oc1cc(-c2ncn(/C=C\c3nnco3)n2)cc(C(F)(F)F)n1` [Compound I-30, (Z)-2-(2-(3-(2-isopropoxy-6-(trifluoromethyl)pyridin-4-yl)-1H-1,2,4-triazol-1-yl)vinyl)-1,3,4-oxadiazole] came in with an IC50 in series [3] of under 1000 nM.

On to `CC(C)Oc1cc(-c2ncn(/C=C\c3nnco3)n2)cc(Cl)n1` [Compound I-31, (Z)-2-(2-(3-(2-chloro-6-isopropoxypyridin-4-yl)-1H-1,2,4-triazol-1-yl)vinyl)-1,3,4-oxadiazole], for which the IC50 in series [3] was under 1000 nM.

Regarding `CS(=O)(=O)c1cc(-c2ncn(/C=C\c3nnco3)n2)cc(C(F)(F)F)c1` [Compound I-33, (Z)-2-(2-(3-(3-(methylsulfonyl)-5-(trifluoromethyl)phenyl)-1H-1,2,4-triazol-1-yl)vinyl)-1,3,4-oxadiazole], the IC50 in series [3] was under 1000 nM.

Regarding `FC(F)(F)c1cc(-c2ncn(/C=C\c3nnco3)n2)cc(C(F)(F)F)c1` [Compound I-34, (Z)-2-(2-(3-(3,5-bis(trifluoromethyl)phenyl)-1H-1,2,4-triazol-1-yl)vinyl)-1,3,4-oxadiazole], in series [1] (50 mg/kg orally QDX5/week, Day 37, FIG. 2), the “inhibition of tumor growth” value worked out at 85%. In series [1] (100 mg/kg orally QDX5/week, Day 26, mice euthanized, FIG. 2), this compound returned a weight loss of 20%. For the same compound, the “reduction of tumor growth” value in series [1] (100 mg/kg orally QDX5/week, Day 26, FIG. 2) is recorded as “complete reduction of tumor growth”. Besides, the IC50 in series [3] is under 1000 nM.

`N#Cc1cc(-c2ncn(/C=C\c3nnco3)n2)cc(C(F)(F)F)c1` [Compound I-35, (Z)-3-(1-(2-(1,3,4-oxadiazol-2-yl)vinyl)-1H-1,2,4-triazol-3-yl)-5-(trifluoromethyl)benzonitrile] showed an IC50 in series [3] of under 1000 nM.

`Oc1cc(-c2ncn(/C=C\c3nnco3)n2)cc(C(F)(F)F)c1` [Compound I-36, (Z)-3-(1-(2-(1,3,4-oxadiazol-2-yl)vinyl)-1H-1,2,4-triazol-3-yl)-5-(trifluoromethyl)phenol]: the IC50 in series [3] was under 1000 nM.

Regarding `CC(C)Oc1cc(-c2ncn(/C=C\c3ccccn3)n2)cc(C(F)(F)F)c1` [Compound I-37, (Z)-2-(2-(3-(3-isopropoxy-5-(trifluoromethyl)phenyl)-1H-1,2,4-triazol-1-yl)vinyl)pyridine], the concentration for half-maximal inhibition (IC50) in series [3] was under 1000 nM.

Turning to `COc1cc(-c2ncn(/C=C\c3ccccc3)n2)cc(C(F)(F)F)c1` [Compound I-38, (Z)-3-(3-methoxy-5-(trifluoromethyl)phenyl)-1-styryl-1H-1,2,4-triazole], the half-inhibitory concentration (IC50) in series [3] is over 10000 nM.

In the case of `CC(C)Oc1cc(-c2ncn(/C=C\c3ccccc3)n2)cc(C(F)(F)F)c1` [Compound I-39, (Z)-3-(3-isopropoxy-5-(trifluoromethyl)phenyl)-1-styryl-1H-1,2,4-triazole], the half-maximal inhibitory concentration (IC50) in series [3] was over 10000 nM.

The compound “(Z)-2-(2-(3-(3-chloro-5-(trifluoromethoxy)phenyl)-1H-1,2,4-triazol-1-yl)vinyl)-1,3,4-oxadiazole [Compound I-32]” registered an IC50 in series [4] of under 1000 nM.

(Values after patent US9303000B2, “Olefin containing nuclear transport modulators and uses thereof” (KARYOPHARM THERAPEUTICS INC., priority 2011, dated 2016).)
